Consider 2 compounds from EP0123546A2, “Compositions for treating inflammation and eliciting analgesia” (Norwich Eaton Pharmaceuticals, Inc., priority 1983, dated 1984).

Assay [1] relates to ultraviolet light-induced cutaneous erythema. The assay can be described thus: ultraviolet light-induced cutaneous erythema test (Winder et al.). The note with it: Cavia porcellus, po; linear regression of log dose versus percent protection, combined 2, 3 and 4 hour readings. The assay is classed as in vivo, guinea pigs. How it is done: Guinea pigs weighing 280-715 g were fasted 24 hours and the dorsal-lateral surface was cleared by clipping and chemical depilation. The animals were placed in an opaque rubber glove with three circular, 6 mm punched holes. Exposure for 90 seconds at a distance of 7 cm to a Model 30620 Hanovia ultraviolet lamp with a Type 616A bulb and Type 6540-001 filter produced the erythema. (I) in methylcellulose was administered orally one hour before irradiation to groups of 5 animals at doses from 5 to 153 mg/kg at a rate of 10 mI/kg. Erythema was scored at 2, 3 and 4 hours post-irradiation as 0 (no redness), 0.5 (slight redness) or 1 (full red circle). Percent protection was calculated with reference to a vehicle-dosed control group of 5 animals treated on the same day. ED50 values were estimated by linear regression analysis of the log dose versus percent protection (combined 2, 3 and 4 hour readings) relationship.

The subject of assay [2] is carrageenin-induced rat paw edema. In words: carrageenin-induced rat paw edema method (Winter et al.). The assay is classed as in vivo, male Wistar rats. Conditions: for protection: 300 mg/kg p.o. From the text: The compound 5-(4-chlorophenyl)-2-furancarboxylic acid (I) [drawing 1] and its preparation have been described in the chemical literature (Mathur et al. , J. Chem. Soc., 1961 (Part 2), 2576-2578). It has now been discovered that this compound exerts impressive anti-inflammatory activity using the well recognized carrageenin- induced rat paw edema method described by Winter et al. in Proc. Soc. […] Positive results secured under this method are correlative to successful performance in other species where the need for anti-inflammatory medication is present.
In accordance with the aforementioned -method, fasted male Wistar rats, 100-125 g., were dosed in groups of 3 with […] p.o. of (1) in 0.5% (wlv) methylcellulose. A control group of 20 rats (groups of 5 rats each combined from 4 separate experiments) received methylcellulose only at the same dose rate of 10 ml/kg. One hour later 0.05 ml of 1% (w/v) carrageenin was injected into the plantar region of the right hindpaw of each rat, using a 27-gauge 1/2-inch needle. Before oral dosing and at 4 and 6 hours post-carrageenin, hindpaw volumes were determined by immersing the feet in a liquid mercury bath to the level of the anatomical hairline. Displacement of the mercury was determined as a pressure difference, measured through a Statham venous pressure transducer coupled to a Grass Model 7 polygraph. The polygraph was calibrated such that a 1 ml displacement produced a 1 mm pen deflection. Two consecutive measurements were taken in all cases and the mean value used in calculations. Calculation of the ED50 value was done as described below for the mouse writhing data. Mean percent protection increased at 4 hours from 0 to 3 mg/kg p.o. to 51.5 at 100 mg/kg p.o. and at 6 hours from 16.6 at 3 mg/kg to 39.9 at 100 mg/kg in a dose-dependent manner. The high dose of 300 mg/kg p.o. gave 34.9 and 23.2% protection at 4 and 6 hours, respectively.
(In the carrageenan paw model, swelling and tenderness develop within hours.)

The subject of assay [3] is phenylquinone-induced writhing. In words: antagonism of phenylquinone-induced writhing (Hendershot and Forsaith). The note with it: for Mean percent protection: one hour before phenylquinone i.p.; for ED50: Mus musculus, read-out: dose giving 50% protection (ED50). The assay is classed as in vivo, male albino mice. How it is done: Groups of 10 fasted male albino mice, 14-28 g. were dosed by gavage with 18-1,000 mg/kg (I) in 0.5% (w/v) methylcellulose or with methylcellulose solution alone. One hour later each mouse received 10 ml/kg of 0.02% phenylquinone in 5% ethanol intraperitoneally. The characteristic writhing responses were observed and counted from 5 to 15 minutes after phenylquinone administration.

Assay [4] concerns carrageenin-induced rat paw edema. Conditions: same test; Goldenberg et al., Arch. Int. Pharmacodyn. Ther., 243:331-350, 1980; cited from earlier work.
Assay [5] concerns ultraviolet light-induced cutaneous erythema. The note with it: similar evaluation; Goldenberg et al., op cit.; cited from earlier work.

Read-outs that look alike come from different tables or passages of the source.

As usually defined, the ED50 is the dose at which the effect has come halfway, by size or by number of responders. With `O=C(O)c1ccc(-c2ccc(Cl)cc2)o1` [(I), 5-(4-chlorophenyl)-2-furancarboxylic acid], the ED50 came to 24 mg/kg in assay [1]; 84.2 mg/kg in assay [2] (Rattus norvegicus, 4 hours post-carrageenin, oral dose 1 hour before carrageenin); 213 mg/kg in assay [3] (linear regression of log oral dose versus percent protection). For the same compound, the Mean percent protection amounted to 0% in assay [2] (3 mg/kg p.o., 4 hours post-carrageenin); 16.6% in assay [2] (3 mg/kg p.o., 6 hours post-carrageenin); 51.5% in assay [2] (100 mg/kg p.o., 4 hours post-carrageenin); 39.9% in assay [2] (100 mg/kg p.o., 6 hours post-carrageenin); 13.1% in assay [3] (18 mg/kg by gavage); 92.4% in assay [3] (1,000 mg/kg by gavage). Besides, the protection was determined as 34.9% in assay [2] (4 hours post-carrageenin) and 23.2% in assay [2] (6 hours post-carrageenin).
Turning to `CC(=O)Oc1ccccc1C(=O)O` [aspirin], the ED50 in assay [3] (po) is 182 mg/kg. Besides, the ED50 value in assay [4] was 155 mg/kg p.o. In assay [5], the ED50 estimate is listed as 49.5 mg/kg p.o.
